Source: US20080188460A1, “Tricyclic compounds, a process for their preparation and pharmaceutical compositions containing them” (LES LABORATOIRES SERVIER, priority 2007, published 2008)

How the values were obtained:
[1] = tested on: H146; settings: read-out: IC50 (concentration of compound that inhibits cell viability by 50%); H146, 48 hours exposure
Method: (§1) The cytotoxicity studies were carried out on the three tumour lines of Example A. The cells are distributed onto microplates and exposed to the test compounds for 48 hours. The cell viability is then quantified by a colorimetric assay, the Microculture Tetrazolium Assay (Cancer Res., 1987, 47, 939-942).

[2] = tested on: MV4;11; settings: read-out: IC50 (concentration of compound that inhibits cell viability by 50%); MV4;11, 48 hours exposure
Method: as §1

[3] = tested on: RS4;11; settings: read-out: IC50 (concentration of compound that inhibits cell viability by 50%); RS4;11, 48 hours exposure
Method: as §1

[4] = tested on: MV4;11 cells; settings: at 0.1 μM, 6 hours exposure
Method: (§2) This study was carried out on three human tumour cell lines: • 1 small-cell lung carcinoma, H146, • 1 acute myeloid leukaemia, MV4; 11, • 1 leukaemia, RS4; 11.
(§3) The cell lines are cultured in an incubator at 37° C. in the presence of 5% CO2. The H146 and RS4;11 cells are cultured in complete RPMI 1640 medium containing 10% foetal calf serum, 2 mM of glutamine, 50 units/ml of penicillin, 50 μg/ml of streptomycin and 10 mM of Hepes buffer, pH=7.4.
(§4) The cells are distributed onto 6-well plates and exposed to the test compounds for 6 hours. They are then harvested and lysed and the caspase activity is measured in the cell lysates. This enzymatic measurement is carried out by measuring the appearance of a fluorigenic cleavage product (Pharmacia).

[5] = tested on: RS4;11 cells; settings: at 1 μM, 6 hours exposure
Method: as §2, §3, §4

[6] = tested on: H146 cells; settings: at 3 μM, 6 hours exposure
Method: as §2, §3, §4

[7] = tested on: H146 small-cell lung carcinoma cells; settings: 100 mg/kg intra-peritoneally every day for 21 days
Method: The anti-tumour activity of the compounds of the invention is evaluated in a xenotransplant model of H146 small-cell lung carcinoma cells.
5×10^6 H146 cells are transplanted sub-cutaneously into immunosuppressed mice (NOD SCID strain). […] The tumour mass is measured twice a week from the commencement of treatment.

CN(C)CC[C@H](CSc1ccccc1)Nc1ccc(S(=O)(=O)NC(=O)c2ccc3c(c2)CC[C@@H]2CN(Cc4ccccc4-c4ccc(Cl)cc4)CCN32)cc1[N+](=O)[O-].Cl.Cl [Example 20]
IC50 [1]: 305 nM | IC50 [2]: 29.5 nM | IC50 [3]: 16.5 nM | caspase activity [4]: 20000 IU | caspase activity [5]: 23000 IU | caspase activity [6]: 22000 IU | persistence of the effect after the end of treatment [7]: at least 40 days | tumour regression [7]: almost complete tumour regression
